Reference: ChEMBL document CHEMBL1909046, “DrugMatrix in vitro pharmacology data”

Key:
[1] = molecular target: T1, Alpha-1B adrenergic receptor (Rattus norvegicus, UniProt P15823); assay: DRUGMATRIX: Alpha-1B adrenergic receptor radioligand binding (ligand: prazosin); type: cell membranes, Wistar, Liver, Membrane; conditions: Not Active = under 50% inhibition at 10 µM
T1 sequence (P15823 whole entry): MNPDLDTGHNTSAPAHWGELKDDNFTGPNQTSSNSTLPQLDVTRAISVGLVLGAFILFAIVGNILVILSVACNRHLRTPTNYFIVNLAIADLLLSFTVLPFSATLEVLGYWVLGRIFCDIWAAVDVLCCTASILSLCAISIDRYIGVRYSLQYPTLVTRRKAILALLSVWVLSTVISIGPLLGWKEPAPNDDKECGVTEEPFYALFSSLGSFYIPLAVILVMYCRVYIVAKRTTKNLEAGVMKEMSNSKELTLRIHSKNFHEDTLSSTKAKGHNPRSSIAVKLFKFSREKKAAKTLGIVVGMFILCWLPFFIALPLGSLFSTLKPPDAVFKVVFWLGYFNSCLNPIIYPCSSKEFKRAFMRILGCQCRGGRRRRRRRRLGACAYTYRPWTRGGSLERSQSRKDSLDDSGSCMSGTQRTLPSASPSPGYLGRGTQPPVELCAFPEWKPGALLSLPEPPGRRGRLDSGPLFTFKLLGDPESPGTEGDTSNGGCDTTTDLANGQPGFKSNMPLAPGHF

[2] = molecular target: T2, Alpha-1D adrenergic receptor (Homo sapiens, UniProt P25100); type: cell membranes, HEK293, Membrane; conditions: hek293; further: in other assays of this panel Not Active means under 50% inhibition at 10 µM
T2 sequence (P25100 whole entry): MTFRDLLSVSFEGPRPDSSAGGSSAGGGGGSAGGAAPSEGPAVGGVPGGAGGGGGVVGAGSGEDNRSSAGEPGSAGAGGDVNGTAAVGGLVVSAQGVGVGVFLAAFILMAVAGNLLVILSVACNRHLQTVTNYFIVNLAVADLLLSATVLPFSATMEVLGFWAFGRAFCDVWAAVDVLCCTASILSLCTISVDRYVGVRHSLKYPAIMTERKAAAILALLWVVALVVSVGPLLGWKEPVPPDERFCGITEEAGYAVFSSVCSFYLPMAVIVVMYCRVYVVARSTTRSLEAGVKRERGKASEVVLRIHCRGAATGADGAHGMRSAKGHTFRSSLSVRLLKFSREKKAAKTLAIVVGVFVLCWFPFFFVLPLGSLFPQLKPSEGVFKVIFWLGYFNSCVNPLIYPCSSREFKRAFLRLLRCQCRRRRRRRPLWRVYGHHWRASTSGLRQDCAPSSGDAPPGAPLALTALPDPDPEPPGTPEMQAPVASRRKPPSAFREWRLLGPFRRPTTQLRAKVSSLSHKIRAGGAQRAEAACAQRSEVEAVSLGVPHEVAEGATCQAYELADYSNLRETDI

[3] = molecular target: Sodium-dependent noradrenaline transporter (Homo sapiens, UniProt P23975); assay: DRUGMATRIX: Norepinephrine Transporter radioligand binding (ligand: [125I] RTI-55); type: cell membranes, MDCK, Membrane; conditions: Not Active = under 50% inhibition at 10 µM
[4] = DRUGMATRIX: Atrial Natriuretic Factor (ANF) radioligand binding (ligand: [125I] ANF (rat)); type: cell membranes, Cavia porcellus, Dunkin-Hartley, Adrenal gland, Membrane; conditions: Not Active = under 50% inhibition at 10 µM
[5] = molecular target: C-C chemokine receptor type 2 (Homo sapiens, UniProt P41597); type: cell membranes, CHO-K1, Membrane; conditions: cho-k1; further: in other assays of this panel Not Active means under 50% inhibition at 10 µM
[6] = molecular target: T3, Neuropeptide Y receptor type 2 (Homo sapiens, UniProt P49146); type: cell membranes, Membrane; conditions: kan-ts; further: in other assays of this panel Not Active means under 50% inhibition at 10 µM
T3 sequence (P49146 whole entry): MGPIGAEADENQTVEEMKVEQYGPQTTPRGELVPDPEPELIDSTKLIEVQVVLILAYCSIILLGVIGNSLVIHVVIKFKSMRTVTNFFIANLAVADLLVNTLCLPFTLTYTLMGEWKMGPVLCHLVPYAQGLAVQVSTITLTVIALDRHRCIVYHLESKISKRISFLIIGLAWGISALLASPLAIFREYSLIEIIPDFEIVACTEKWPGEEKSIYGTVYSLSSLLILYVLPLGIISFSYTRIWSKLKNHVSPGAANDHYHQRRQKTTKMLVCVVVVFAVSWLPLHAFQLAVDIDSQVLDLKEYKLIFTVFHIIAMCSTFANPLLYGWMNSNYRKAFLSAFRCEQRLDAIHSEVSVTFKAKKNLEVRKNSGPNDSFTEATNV

Interstitial collagenase = molecular target: T4, Interstitial collagenase (Homo sapiens, UniProt P03956); assay: biochemical; type: tissue-based, Rheumatoid synovial fibroblasts;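 further: MMP-1 enzyme inhibition assay using a peptide substrate; in other assays of this panel Not Active means under 50% inhibition at 10 µM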
T4 sequence (P03956 whole entry): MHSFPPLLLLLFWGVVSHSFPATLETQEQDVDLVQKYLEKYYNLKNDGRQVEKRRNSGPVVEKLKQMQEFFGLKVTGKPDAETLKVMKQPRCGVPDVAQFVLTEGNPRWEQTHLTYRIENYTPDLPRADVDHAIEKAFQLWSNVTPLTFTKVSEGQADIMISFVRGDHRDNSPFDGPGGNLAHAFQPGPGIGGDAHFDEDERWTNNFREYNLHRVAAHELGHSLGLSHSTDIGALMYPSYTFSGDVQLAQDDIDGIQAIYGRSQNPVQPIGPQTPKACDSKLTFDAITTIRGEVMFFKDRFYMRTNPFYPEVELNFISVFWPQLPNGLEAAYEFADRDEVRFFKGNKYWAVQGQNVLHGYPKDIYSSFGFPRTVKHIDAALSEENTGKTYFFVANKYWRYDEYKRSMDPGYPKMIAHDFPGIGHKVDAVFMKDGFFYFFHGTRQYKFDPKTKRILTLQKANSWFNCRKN

[7] = molecular target: Epidermal growth factor receptor (Homo sapiens, UniProt P00533); assay: DRUGMATRIX: Protein Tyrosine Kinase, EGF Receptor enzyme inhibition (substrate: Poly(Glu:Tyr)); type: cell-based, Insect cells; conditions: Not Active = under 50% inhibition at 10 µM; read-out: IC50
[8] = molecular target: T5, 5-hydroxytryptamine receptor 1A (Rattus norvegicus, UniProt P19327); type: cell membranes, Membrane; conditions: cho-k1; further: in other assays of this panel Not Active means under 50% inhibition at 10 µM
T5 sequence (P19327 whole entry): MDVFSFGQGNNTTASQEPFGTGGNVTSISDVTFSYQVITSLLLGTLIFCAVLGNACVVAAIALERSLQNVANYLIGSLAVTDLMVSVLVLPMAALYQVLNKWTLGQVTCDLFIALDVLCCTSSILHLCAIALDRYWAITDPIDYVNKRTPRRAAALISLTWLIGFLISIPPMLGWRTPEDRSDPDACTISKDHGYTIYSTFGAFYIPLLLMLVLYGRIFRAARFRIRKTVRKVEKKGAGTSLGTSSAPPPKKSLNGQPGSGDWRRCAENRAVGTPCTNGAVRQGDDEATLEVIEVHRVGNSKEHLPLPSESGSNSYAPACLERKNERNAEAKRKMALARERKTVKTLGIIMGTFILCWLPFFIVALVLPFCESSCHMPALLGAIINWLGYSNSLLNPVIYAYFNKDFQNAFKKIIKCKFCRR

Acetylcholinesterase = Acetylcholinesterase (Homo sapiens, UniProt P22303); assay: DRUGMATRIX: Acetylcholinesterase enzyme inhibition (substrate: acetylthiocholine); type: cell-based, HEK293; conditions: hek293; Not Active = under 50% inhibition at 10 µM
Acetylcholinesterase, sequence (P22303 whole entry): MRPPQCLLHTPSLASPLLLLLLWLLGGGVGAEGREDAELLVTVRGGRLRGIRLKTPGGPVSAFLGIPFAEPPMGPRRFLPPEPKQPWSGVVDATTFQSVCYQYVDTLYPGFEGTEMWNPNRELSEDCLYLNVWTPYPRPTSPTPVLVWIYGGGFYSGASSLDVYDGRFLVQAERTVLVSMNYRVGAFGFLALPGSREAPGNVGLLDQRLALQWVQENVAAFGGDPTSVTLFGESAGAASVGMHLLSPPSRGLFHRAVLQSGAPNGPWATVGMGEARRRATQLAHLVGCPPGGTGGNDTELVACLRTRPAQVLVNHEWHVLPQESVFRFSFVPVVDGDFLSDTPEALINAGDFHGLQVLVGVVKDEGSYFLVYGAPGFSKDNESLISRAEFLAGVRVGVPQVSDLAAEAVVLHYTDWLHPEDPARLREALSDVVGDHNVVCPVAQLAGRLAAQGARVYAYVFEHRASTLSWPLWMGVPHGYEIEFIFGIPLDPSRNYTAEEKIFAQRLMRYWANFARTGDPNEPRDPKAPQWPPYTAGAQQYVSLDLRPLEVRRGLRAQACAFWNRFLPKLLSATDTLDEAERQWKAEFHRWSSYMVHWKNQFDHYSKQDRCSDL

Sodium-dependent noradrenaline transporter, sequence (P23975 whole entry): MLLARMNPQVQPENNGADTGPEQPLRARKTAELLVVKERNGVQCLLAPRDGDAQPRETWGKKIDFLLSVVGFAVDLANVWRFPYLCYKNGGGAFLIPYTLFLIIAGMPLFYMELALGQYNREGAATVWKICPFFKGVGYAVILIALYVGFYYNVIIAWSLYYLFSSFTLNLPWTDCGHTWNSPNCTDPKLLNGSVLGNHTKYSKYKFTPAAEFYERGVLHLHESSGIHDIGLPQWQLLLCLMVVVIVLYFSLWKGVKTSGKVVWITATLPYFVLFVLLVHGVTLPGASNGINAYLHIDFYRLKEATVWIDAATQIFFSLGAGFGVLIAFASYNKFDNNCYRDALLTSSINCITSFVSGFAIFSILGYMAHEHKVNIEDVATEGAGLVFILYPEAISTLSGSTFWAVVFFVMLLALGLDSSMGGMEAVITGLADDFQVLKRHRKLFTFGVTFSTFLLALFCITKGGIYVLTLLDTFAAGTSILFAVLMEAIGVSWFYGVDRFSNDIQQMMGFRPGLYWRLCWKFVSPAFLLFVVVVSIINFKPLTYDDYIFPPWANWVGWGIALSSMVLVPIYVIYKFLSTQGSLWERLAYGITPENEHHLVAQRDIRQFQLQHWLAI
Epidermal growth factor receptor, sequence (P00533 whole entry): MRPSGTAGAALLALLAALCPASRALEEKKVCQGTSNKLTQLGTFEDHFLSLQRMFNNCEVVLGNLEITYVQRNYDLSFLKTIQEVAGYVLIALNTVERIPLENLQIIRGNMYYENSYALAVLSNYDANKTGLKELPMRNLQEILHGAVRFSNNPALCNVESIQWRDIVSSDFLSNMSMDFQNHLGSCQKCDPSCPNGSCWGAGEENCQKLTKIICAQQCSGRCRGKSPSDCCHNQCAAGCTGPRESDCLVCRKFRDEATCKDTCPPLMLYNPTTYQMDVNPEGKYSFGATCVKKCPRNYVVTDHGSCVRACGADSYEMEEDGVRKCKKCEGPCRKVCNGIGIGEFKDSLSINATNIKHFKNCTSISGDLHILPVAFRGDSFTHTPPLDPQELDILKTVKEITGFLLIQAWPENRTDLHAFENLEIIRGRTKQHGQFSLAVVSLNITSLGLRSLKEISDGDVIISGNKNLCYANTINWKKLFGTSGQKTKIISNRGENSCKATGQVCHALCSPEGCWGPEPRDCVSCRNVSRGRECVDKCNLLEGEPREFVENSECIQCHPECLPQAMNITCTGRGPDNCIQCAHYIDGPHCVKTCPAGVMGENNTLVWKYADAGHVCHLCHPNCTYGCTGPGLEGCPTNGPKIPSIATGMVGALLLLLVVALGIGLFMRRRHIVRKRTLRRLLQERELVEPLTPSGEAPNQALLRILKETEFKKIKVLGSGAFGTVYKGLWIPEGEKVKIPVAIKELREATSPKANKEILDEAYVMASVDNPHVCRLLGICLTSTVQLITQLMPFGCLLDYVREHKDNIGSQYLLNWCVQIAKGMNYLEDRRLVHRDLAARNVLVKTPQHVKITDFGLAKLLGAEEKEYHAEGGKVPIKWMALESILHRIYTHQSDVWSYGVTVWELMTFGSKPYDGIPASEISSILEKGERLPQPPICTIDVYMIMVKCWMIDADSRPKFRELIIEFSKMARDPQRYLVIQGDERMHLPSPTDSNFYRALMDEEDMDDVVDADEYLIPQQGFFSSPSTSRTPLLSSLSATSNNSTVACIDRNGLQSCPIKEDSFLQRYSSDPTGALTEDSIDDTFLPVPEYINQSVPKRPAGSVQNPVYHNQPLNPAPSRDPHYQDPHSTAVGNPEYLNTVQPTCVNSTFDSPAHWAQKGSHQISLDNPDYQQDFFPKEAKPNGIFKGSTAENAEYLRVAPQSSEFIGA
C-C chemokine receptor type 2, sequence (P41597 whole entry): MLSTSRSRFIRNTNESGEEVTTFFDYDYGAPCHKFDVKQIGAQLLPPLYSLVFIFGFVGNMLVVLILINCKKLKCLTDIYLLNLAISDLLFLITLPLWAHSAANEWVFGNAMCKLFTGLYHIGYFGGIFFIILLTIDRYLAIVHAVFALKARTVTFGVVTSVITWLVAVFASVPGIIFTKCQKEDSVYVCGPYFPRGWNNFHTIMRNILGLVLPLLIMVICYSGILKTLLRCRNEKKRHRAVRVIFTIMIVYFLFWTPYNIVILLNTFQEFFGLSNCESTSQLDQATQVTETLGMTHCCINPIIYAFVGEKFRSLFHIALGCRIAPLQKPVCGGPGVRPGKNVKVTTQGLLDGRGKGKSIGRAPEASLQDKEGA

[Cl-].[Cl-].[Zn+2] [ZINC CHLORIDE]
IC50 [1]: Not Active
IC50 [2]: Not Active
IC50 ([3]; read-out: IC50): 7.01 µM
Ki ([3]; read-out: Ki): 6.95 µM
IC50 [4]: Not Active
Ki [4]: Not Active
IC50 [5]: Not Active
IC50 [6]: Not Active
IC50 (Interstitial collagenase): Not Active
IC50 [7]: 2.19 µM
IC50 [8]: Not Active
IC50 (Acetylcholinesterase): Not Active
